In brackets after ≈: the same amount, converted by molar mass.
Experiments:
[1] = tested on: M. tb H37Rv; assay: MIC determination against M. tb H37Rv (MIC-MABA); type: cell-based, Mycobacterium tuberculosis; conditions: Mycobacterium tuberculosis, H37RV, 240 h, read-out: M. tb H37Rv: MIC-MABA, M. tb H37Rv; 7H9 broth; 10 days exposure; MIC = lowest concentration inhibiting fluorescence by 90%
[2] = tested on: M. ab_ATCC; assay: MIC against Mycobacterium abscessus (M. ab_ATCC, MHII), procedure of Franz 2017; type: cell-based; conditions: Mycobacteroides abscessus, Mycobacterium abscessus ATCC
Text: The procedure described in Franz 2017 was used to generate the data shown in column 2 of Table 1.

SMILES | MIC [1] [µg/mL] | MIC [2] [µg/mL]
C[Si]1(C)CCCC(NC(=O)c2cc3sc(-c4ccccc4)nc3[nH]2)CC1 (racemic) [MPL-357, N-(1,1-dimethylsilepan-4-yl)-2-phenyl-4H-pyrrolo[2,3-d]thiazole-5-carboxamide] | 0.012 (≈ 0.0313 µM) | > 64
COc1nc2[nH]c(C(=O)NC3CCC[Si](C)(C)CCC3)cc2s1 [MPL-396, N-(1,1-dimethylsilocan-5-yl)-2-methoxy-4H-pyrrolo[2,3-d]thiazole-5-carboxamide] | 0.309 (≈ 0.879 µM) | > 64
Cc1nc2cc(C(=O)NC3CCCCCCC3)[nH]c2s1 [MPL-091, N-cyclooctyl-2-methyl-4H-pyrrolo[3,2-d]thiazole-5-carboxamide] | > 3.2 | > 64
Cc1nc2[nH]c(C(=O)NC3CCCCCCC3)cc2s1 [MPL-042, N-cyclooctyl-2-methyl-4H-pyrrolo[2,3-d]thiazole-5-carboxamide] | 0.35 (≈ 1.2 µM) | > 64
Cc1c(C(=O)NC2CC[Si](C)(C)CC2)[nH]c2sc(C(C)C)nc12 [MPL-312, N-(1,1-dimethylsilinan-4-yl)-2-isopropyl-6-methyl-4H-pyrrolo[3,2-d]thiazole-5-carboxamide] | 0.498 (≈ 1.42 µM) | > 64
COc1ccccc1-c1nc2[nH]c(C(=O)NC3CC[Si](C)(C)CC3)cc2s1 [MPL-372, N-(1,1-dimethylsilinan-4-yl)-2-(2-methoxyphenyl)-4H-pyrrolo[2,3-d]thiazole-5-carboxamide] | 0.138 (≈ 0.345 µM) | > 64
C[Si]1(C)CCC(NC(=O)c2cc3sc(C4CC4)nc3[nH]2)CC1 [MPL-240, 2-cyclopropyl-N-(1,1-dimethylsilinan-4-yl)-4H-pyrrolo[2,3-d]thiazole-5-carboxamide] | 0.46 (≈ 1.38 µM) | 0.5 (≈ 1.5 µM)
C[Si]1(C)CCC(NC(=O)c2cc3sc(-c4ccccc4)nc3[nH]2)C1 (centres unmarked) [MPL-404, N-(1,1-dimethylsilolan-3-yl)-2-phenyl-4H-pyrrolo[2,3-d]thiazole-5-carboxamide] | 0.083 (≈ 0.233 µM) | 64 (≈ 180 µM)
COc1nc2[nH]c(C(=O)NC3CC[Si]4(CCCCC4)CC3)cc2s1 [MPL-394, 2-methoxy-N-(6-silaspiro[5.5]undecan-3-yl)-4H-pyrrolo[2,3-d]thiazole-5-carboxamide] | 0.04 (≈ 0.11 µM) | > 64
COc1nc2[nH]c(C(=O)NC3CC[Si]4(CCCC4)CC3)cc2s1 [MPL-393, 2-methoxy-N-(5-silaspiro[4.5]decan-8-yl)-4H-pyrrolo[2,3-d]thiazole-5-carboxamide] | 0.062 (≈ 0.177 µM) | > 64
O=C(NC1CC[Si]2(CCCC2)CC1)c1cc2sc(OC3CCC3)nc2[nH]1 [MPL-459, 2-(cyclobutoxy)-N-(5-silaspiro[4.5]decan-8-yl)-4H-pyrrolo[2,3-d]thiazole-5-carboxamide] | 0.0593 (≈ 0.152 µM) | > 64
COc1nc2[nH]c(C(=O)NC3CC[Si](C)(C)C3)cc2s1 (centres unmarked) [MPL-403, N-(1,1-dimethylsilolan-3-yl)-2-methoxy-4H-pyrrolo[2,3-d]thiazole-5-carboxamide] | 0.809 (≈ 2.61 µM) | 4 (≈ 12.9 µM)
Cc1c(C(=O)NC2CC[Si](C)(C)CC2)[nH]c2nc(C3CC3)sc12 [MPL-228, 2-cyclopropyl-N-(1,1-dimethylsilinan-4-yl)-6-methyl-4H-pyrrolo[2,3-d]thiazole-5-carboxamide] | 0.061 (≈ 0.176 µM) | > 64
O=C(NC1CC[Si]2(CCCC2)CC1)c1cc2sc(OC3CC3)nc2[nH]1 [MPL-458, 2-(cyclopropoxy)-N-(5-silaspiro[4.5]decan-8-yl)-4H-pyrrolo[2,3-d]thiazole-5-carboxamide] | 0.124 (≈ 0.33 µM) | > 64
Cc1ccccc1-c1nc2[nH]c(C(=O)NC3CC[Si](C)(C)CC3)cc2s1 [MPL-371, N-(1,1-dimethylsilinan-4-yl)-2-(o-tolyl)-4H-pyrrolo[2,3-d]thiazole-5-carboxamide] | 0.041 (≈ 0.107 µM) | > 64
O=C(NC1CC[Si]2(CCCCC2)CC1)c1cc2sc(-c3ccccc3)nc2[nH]1 [MPL-359, 2-phenyl-N-(6-silaspiro[5.5]undecan-3-yl)-4H-pyrrolo[2,3-d]thiazole-5-carboxamide] | 0.014 (≈ 0.0342 µM) | > 64
C[Si]1(C)CCCC(NC(=O)c2cc3sc(OC4CC4)nc3[nH]2)CC1 (centres unmarked) [MPL-472, 2-(cyclopropoxy)-N-(1,1-dimethylsilepan-4-yl)-4H-pyrrolo[2,3-d]thiazole-5-carboxamide] | 0.06 (≈ 0.165 µM) | > 64
C[Si]1(C)CCCC(NC(=O)c2cc3sc(-c4cccnc4)nc3[nH]2)CC1 (centres unmarked) [MPL-365, N-(1,1-dimethylsilepan-4-yl)-2-(3-pyridyl)-4H-pyrrolo[2,3-d]thiazole-5-carboxamide] | 0.125 (≈ 0.325 µM) | > 64
Cc1nc2[nH]c(C(=O)N[C@H]3C[C@H]4C[C@@H]([C@@H]3C)C4(C)C)cc2s1 [MPL-025, 2-methyl-N-[(1S,2S,3S,5R)-2,6,6-trimethylnorpinan-3-yl]-4H-pyrrolo[2,3-d]thiazole-5-carboxamide] | 0.71 (≈ 2.24 µM) | 4 (≈ 12.6 µM)
C[Si]1(C)CCC(NC(=O)c2[nH]c3sc(C4CC4)nc3c2Br)CC1 [MPL-311, 6-bromo-2-cyclopropyl-N-(1,1-dimethylsilinan-4-yl)-4H-pyrrolo[3,2-d]thiazole-5-carboxamide] | 0.457 (≈ 1.11 µM) | > 64
C[C@@H]1[C@@H](NC(=O)c2cc3sc(C4CC4)nc3[nH]2)C[C@H]2C[C@@H]1C2(C)C [MPL-144, 2-cyclopropyl-N-((1S,2S,3S,5R)-2,6,6-trimethylbicyclo[3.1.1]heptan-3-yl)-4H-pyrrolo[2,3-d]thiazole-5-carboxamide] | 1.5 (≈ 4.37 µM) | > 64
Cc1c(C(=O)NC2CCCC[Si](C)(C)CC2)[nH]c2nc(C3CC3)sc12 (centres unmarked) [MPL-293, 2-cyclopropyl-N-(1,1-dimethylsilocan-4-yl)-6-methyl-4H-pyrrolo [2,3-d]thiazole-5-carboxamide] | 0.062 (≈ 0.165 µM) | > 64

Source: patent US20220396586A1, “THIAZOLE CARBOXAMIDE COMPOUNDS AND USE THEREOF FOR THE TREATMENT OF MYCOBACTERIAL INFECTIONS” (THE GLOBAL ALLIANCE FOR TB DRUG DEVELOPMENT, INC., priority 2019, published 2022)
